Results as given in patent publication US5686606A, “UCF116 compounds” (Kyowa Hakko Kogyo, Co., Ltd., priority 1994, dated 1997).
Converted amounts (≈) assume the structure as drawn. Read-outs that look alike come from different tables or passages of the source.

Key:
[1] = test system: Candida albicans ATCC 10231; assay: Antibacterial activity (MIC), agar dilution method; format: cell-based
Method: (§1) The antibacterial activity was determined by the agar dilution method using a medium (pH 7) which comprises 3 g/l Bacto-tryptone (Difco Laboratories),3 g/l meat extract, 1 g/f yeast extract, 1 g/l glucose and 16 g/l agar.

[2] = test system: Staphylococcus aureus ATCC 6538P; assay: Antibacterial activity (MIC), agar dilution method; format: cell-based; details: ATCC6538P, pH 7
Method: as §1

[3] = test system: Enterococcus faecium ATCC 10541; assay: Antibacterial activity (MIC), agar dilution method; format: cell-based
Method: as §1

HR-3Y1 cells = assay: Growth inhibition against HR-3Y1 cells; format: cell-based; details: 72 hours, 37° C., Giemsa staining
Method: An HR-3Y1 cell suspension (3.0×10^4 cells/ml) prepared by suspending HR-3Y1 cells in a medium comprising MEM medium (Nissui Pharmaceutical Co., Ltd.) and 10% fetal calf serum (hereinafter referred to as Medium A) was put into wells of a 96-well microtiter plate in an amount of 0.1 ml per well. After the cells in the plate were cultivated at 37° C. for 20 hours in a CO2 -incubator, a test compound appropriately diluted with Medium A was added to the wells in an amount of 0.1 ml per well. The cells were further cultivated at 37° C. for 72 hours in the CO2 -incubator. After the cultivation supernatant was removed, the residue was washed once with physiological saline and then treated with 0.1 ml of methanol for 10 minutes to fix the cells. The cells were stained with 0.1 ml of Giemsa's staining solution [Giemsa's staining solution, Merck Art 9204 (Merck & Co., Inc.): physiological saline=1:10] for 5 minutes. After the staining solution was removed, the residue was washed once with 0.2 ml of water. Then, the dye was extracted with 0.2 ml of 0.1 N hydrochloric acid and the absorbance was measured at 620 nm with a microplate reader.
The concentration of the test compound at which the growth of the cells is inhibited by 50% (IC50) was calculated by comparing the absorbance of untreated cells with those of the cells treated with the test compound at known concentrations.

BALB 3T3/H-ras cells = assay: Growth inhibition against BALB 3T3/H-ras cells; format: cell-based; details: Mus musculus, 72 hours, 37° C., Giemsa staining
Method: A BALB 3T3/H-ras cell suspension (3.0×10^4 cells/ml) prepared by suspending BALB 3T3/H-ras cells ([…]) in a medium comprising MEM medium (Nissui Pharmaceutical Co., Ltd.) and 10% fetal calf serum (hereinafter referred to as Medium A) was put into wells of a 96-well microtiter plate in an amount of 0.1 ml per well. After the cells in the plate were cultivated at 37° C. for 20 hours in a CO2 -incubator, a test compound appropriately diluted with Medium A was added to the wells in an amount of 0.1 ml per well. The cells were further cultivated at 37° C. for 72 hours in the CO2 -incubator. After the cultivation supernatant was removed, the residue was washed once with physiological saline and then treated with 0.1 ml of methanol for 10 minutes to fix the cells. The cells were stained with 0.1 ml of Giemsa's staining solution [Giemsa's staining solution, Merck Art 9204 (Merck & Co., Inc.): physiological saline=1:10] for 5 minutes. After the staining solution was removed, the residue was washed once with 0.2 ml of water. Then, the dye was extracted with 0.2 ml of 0.1 N hydrochloric acid and the absorbance was measured at 620 nm with a microplate reader. […]

Solubility = format: physicochemical
[4] = test system: isogenic tumor in K-BALB mice; assay: Antitumor activity against isogenic tumor system in K-BALB mice; format: in vivo; details: 10.0 mg/kg, intraperitoneal, 5 consecutive days from 7th day after s.c. transplantation, BALB/c mouse
Method: The antitumor activity against an isogenic tumor system in K-BALB mice was measured according to the method described in Proc. Natl. Acad. Sci., 90, 2281 (1993). That is, an isogenic tumor in K-BALB mice was resected from a donor mouse, and a 2×2×2 mm (8 mm^3) tumor piece was subcutaneously transplanted into a BALB/c mouse at the ventral side using a trocar. After the graft survival was confirmed on the 7th day after the transplantation, a test compound was intraperitoneally administered for 5 consecutive days from the same day. The longer diameter and the shorter diameter of the tumor were measured with slide calipers, and the tumor volume was calculated according to the formula: (longer diameter)×(shorter diameter)^2 /2 [Cancer Chemother. Rep., Part III, 3, 1 (1972)]. The antitumor effect was evaluated in terms of T/C, the ratio of the tumor volume of a test compound-treated group (T) to that of an untreated group (C).

[5] = ATCC10231, Candida albicans ATCC 10231, agar dilution, pH 7, read-out: MIC
[6] = Staphylococcus aureus ATCC 6538P, agar dilution, read-out: MIC
[7] = ATCC10541, Enterococcus faecium ATCC 10541, agar dilution, pH 7, read-out: MIC

SMILES | MIC [1, 5] | MIC [2, 6] | MIC [3, 7] | IC50 (HR-3Y1 cells) | IC50 (BALB 3T3/H-ras cells) | Solubility in DMSO, chloroform, acetone and ethyl acetate (Solubility) | Solubility in water and hexane (Solubility) | T/C (ratio of tumor volume of treated group to untreated group) [4] | MIC ([1]; Candida albicans, ATCC10231, pH 7) | MIC ([2]; Staphylococcus aureus) | MIC ([3]; Enterococcus faecium, ATCC10541, pH 7)
CO[C@H]1/C=C/C=C/C=C/C[C@H](OC(=O)[C@@H](C)NC(=O)C2=CCCCC2)[C@H](C)[C@@H](O)/C(C)=C\CCc2cc(O)cc(c2O)NC(=O)C1 [UCF116-B] | 20.8 µg/mL (≈ 32.7 µM) | 41.7 µg/mL (≈ 65.5 µM) | 41.7 µg/mL (≈ 65.5 µM) | 350 nM | 390 nM | Soluble | insoluble | 0.25 |  |  | 
C/C=C(\C)C(=O)N[C@H](C)C(=O)O[C@H]1C/C=C/C=C/C=C/[C@H](OC)CC(=O)Nc2cc(O)cc(c2O)CC/C=C(/C)[C@H](O)[C@H]1C [UCF116-D] |  |  |  |  | 660 nM | Soluble | insoluble |  | 83.3 µg/mL (≈ 136 µM) | 83.3 µg/mL (≈ 136 µM) | 83.3 µg/mL (≈ 136 µM)
CO[C@H]1/C=C/C=C/C=C/C[C@H](OC(=O)C2(NC(=O)C3CCCCC3)CC2)[C@H](C)[C@@H](O)/C(C)=C\CCC2=CC(=O)C=C(NC(=O)C1)C2=O [UCF116-A3] | 41.7 µg/mL (≈ 64.3 µM) | 41.7 µg/mL (≈ 64.3 µM) | 83.3 µg/mL (≈ 128 µM) | 950 nM |  | Soluble | insoluble |  |  |  | 
